{"source": "paper PMC10534486", "about": "(Pharmaceutics, 2023)", "key": {"[1]": {"details": "for CLR estimated from the free fraction in plasma: intravenous"}, "in vivo": {"experiment": "in vivo", "details": "Sprague-Dawley, rat, plasma, iv, 10 mg/kg; for clearance: CL (time-averaged total body clearance); for CL renal: CLR (time-averaged renal clearance); for MRT: MRT (mean residence time); for half-life: Terminal half-life; for Vd: Vss (apparent volume of distribution at steady state); for k el: k (elimination rate constant)"}, "[2]": {"experiment": "Vmax, Km and CLint for disappearance of tofacitinib in intestinal microsomes"}, "in vitro": {"experiment": "in vitro", "assay_type": "in vitro ADME, rat", "protocol": "[…]. […] […].\nThe binding percentage (%) was calculated using the equation: Binding percentage %=CT−CF/CT×100 where CF represents the concentration of free drug measured in the ultrafiltrate and CT is the total drug concentration introduced into the ultrafiltration system before centrifugation."}, "[3]": {"experiment": "Distribution of tofacitinib in tissues 30 min after intravenous administration", "assay_type": "in vivo", "details": "Sprague-Dawley, rat; all tissues of CON and PHL rats, 30 min after intravenous 10 mg/kg; read-out: Tissue-to-plasma (T/P) ratios", "protocol": ". Tissue samples, including fat, brain, kidney, heart, liver, large intestine, mesentery, lung, small intestine, muscle, stomach, and spleen, were removed from each rat, rinsed in phosphate-buffered saline (PBS, pH 7.4), and blotted dry with paper towels to remove any remaining blood. Approximately 1 g of each tissue was added to 4 volumes of homogenizing buffer, followed by homogenization (IKA Labortechnik, Staufen, Germany) and centrifugation at 8000× g for 10 min."}, "[4]": {"details": "cited from earlier work"}, "P-gp": {"system": "P-gp", "set-up": "method as in PMID 24704892", "details": "cited from earlier work"}, "[5]": {"experiment": "Pharmacokinetics after oral administration of 20 mg/kg to CON and PHL rats", "assay_type": "in vivo, Sprague–Dawley rats", "details": "for AUC(0-inf) / Cmax / CL renal / half-life / k el / bioavailability: po, 20 mg/kg; for CL renal: read-out: CLR (time-averaged renal clearance); for half-life: read-out: Terminal half-life; for k el: read-out: k (elimination rate constant) (converted); for bioavailability: read-out: F (absolute oral bioavailability)", "protocol": "The rats were randomly assigned to one of two experimental groups: a control (CON) and a P-407-induced hyperlipidemia (PHL) group. P-407 was dissolved in cold sterile 0.9% NaCl-injectable solution and stored in a refrigerator for at least 6 h to ensure complete dissolution. Rats in the PHL group received a single intraperitoneal injection of 1 g/kg P-407, whereas rats in the CON group received a single intraperitoneal injection of an equal volume of 0.9% NaCl. Hyperlipidemia was defined as a total cholesterol concentration higher than 220 mg/dL or a low-density lipoprotein (LDL) cholesterol concentration higher than 160 mg/dL [29, 30].\nRats were anesthetized with ketamine (100 mg/kg) prior to surgical procedures. […] Prior to oral investigation, the rats were fasted overnight and only the carotid artery was cannulated for blood collection. The rats were allowed to recover for 3–4 h after surgical procedures prior to the performance of subsequent experiments.\n. Blood samples (0.12 mL) were obtained at 0 (prior to drug administration), 1, 5, 15, 30, 45, 60, 90, 120, 180, and 240 min through the carotid artery. […]. Blood samples (0.12 mL) were collected through the carotid artery at 0 (prior to drug administration), 5, 15, 30, 45, 60, 90, 120, 180, 240, 360, and 480 min. All blood samples were centrifuged for 1 min at 8000× g and plasma (50 μL) samples were collected. After the blood samples were obtained, 0.3 mL of heparinized 0.9% NaCl solution (20 IU/mL) was immediately injected into the carotid artery to prevent blood clotting.\nAt 24 h, the rats were sacrificed and the abdomen of each was opened. The entire gastrointestinal tract of each rat was excised, cut into small pieces, and immersed in a beaker containing 50 mL of methanol. After evenly mixing the contents in the beaker, a 50 μL aliquot of each supernatant was withdrawn. The volumes of urine samples collected for 24 h after drug administration were measured and two 100 μL aliquots of each were collected.\nThe following pharmacokinetic parameters were determined by non-compartmental analysis (WinNonlin, Pharsight Co., Mountain View, CA, USA) using standard methods: terminal half-life, time-averaged total body (CL), renal (CLR), and nonrenal (CLNR) clearances, apparent volume of distribution at steady state (Vss), area under the plasma concentration–time curve from zero to infinity (AUC0–∞), and elimination rate constant (k). AUC0–∞ was calculated using the trapezoidal rule extrapolation method, whereas the maximum plasma concentration (Cmax) and time required to reach Cmax (Tmax) were determined directly from the plasma concentration–time curves. (R3-3) The absorption rate constants (ka) for oral administration were also estimated under the assumption of one-compartment model and first-order elimination."}, "[6]": {"experiment": "Vmax, Km and CLint for disappearance of tofacitinib in hepatic microsomes"}, "[7]": {"details": "Sprague-Dawley, rat, plasma, CON rats (n = 6)"}, "[8]": {"details": "Sprague-Dawley, rat, plasma, PHL rats (n = 7)"}, "[9]": {"details": "oral 20 mg/kg, CON rats (n = 6)"}, "[10]": {"details": "oral 20 mg/kg, PHL rats (n = 7)"}}, "note": "Read-outs that look alike come from different tables or passages of the source."}
{"smiles": "C[C@@H]1CCN(C(=O)CC#N)C[C@@H]1N(C)c1ncnc2[nH]ccc12", "note": "[tofacitinib, Tofacitinib]", "values": [{"measurement": "AUC0–∞ higher in PHL than in CON rats", "setting": "[1]; intravenous 10 mg/kg", "value": 73.5, "unit": "%"}, {"measurement": "CL slower in PHL than in CON rats", "setting": "[1]; intravenous 10 mg/kg", "value": 43.0, "unit": "%"}, {"measurement": "Ae0–24 h (drug excreted unchanged in urine for 24 h)", "setting": "[1]; intravenous 10 mg/kg, CON rats (n = 7)", "value": "4.06 ± 1.89 % of dose"}, {"measurement": "Ae0–24 h (drug excreted unchanged in urine for 24 h)", "setting": "[1]; intravenous 10 mg/kg, PHL rats (n = 6)", "value": "5.76 ± 2.53 % of dose"}, {"measurement": "CLR estimated from the free fraction in plasma", "setting": "[1]; CON rats", "value": 4.66, "unit": "mL/min/kg"}, {"measurement": "CLR estimated from the free fraction in plasma", "setting": "[1]; PHL rats", "value": 6.05, "unit": "mL/min/kg"}, {"measurement": "AUC(0-inf)", "setting": "in vivo; AUC (AUC0–∞), CON rats (n = 7)", "value": 4470, "unit": "ng·h/mL"}, {"measurement": "clearance", "setting": "in vivo; CON rats (n = 7)", "value": "37.9 ± 4.85", "unit": "mL/min/kg"}, {"measurement": "clearance", "setting": "in vivo; PHL rats (n = 6)", "value": "21.6 ± 1.13", "unit": "mL/min/kg"}, {"measurement": "CL renal", "setting": "in vivo; CON rats (n = 7)", "value": "3.11 ± 1.58", "unit": "mL/min/kg"}, {"measurement": "CL renal", "setting": "in vivo; PHL rats (n = 6)", "value": "2.47 ± 1.1", "unit": "mL/min/kg"}, {"measurement": "MRT", "setting": "in vivo; CON rats (n = 7)", "value": 22.6, "unit": "min"}, {"measurement": "MRT", "setting": "in vivo; PHL rats (n = 6)", "value": 22.7, "unit": "min"}, {"measurement": "half-life", "setting": "in vivo; CON rats (n = 7)", "value": "29.6 ± 4.55", "unit": "min"}, {"measurement": "half-life", "setting": "in vivo; PHL rats (n = 6)", "value": "34.5 ± 2.29", "unit": "min"}, {"measurement": "Vd", "setting": "in vivo; CON rats (n = 7)", "value": "0.847 ± 0.191", "unit": "L/kg"}, {"measurement": "Vd", "setting": "in vivo; PHL rats (n = 6)", "value": "0.49 ± 0.136", "unit": "L/kg"}, {"measurement": "k el", "setting": "in vivo; CON rats (n = 7)", "value": 0.000398, "unit": "s⁻¹"}, {"measurement": "k el", "setting": "in vivo; PHL rats (n = 6)", "value": 0.000337, "unit": "s⁻¹"}, {"measurement": "CLint lower in PHL than in CON rats", "setting": "[2]", "value": 51.3, "unit": "%"}, {"measurement": "Km, PHL versus CON rats", "setting": "[2]", "value": "comparable"}, {"measurement": "recovery at 30 min, 5 µg/mL", "setting": "in vitro; pH 7.4", "value": "100 ± 2.84", "unit": "%"}, {"measurement": "Free (unbound to plasma proteins) fraction in plasma", "setting": "in vitro; rat, plasma, 30 min, 5 µg/mL", "value": 40.8, "unit": "%"}, {"measurement": "fraction unbound at 30 min, 5 µg/mL", "setting": "in vitro; rat, plasma, Free (unbound to plasma proteins) fraction in plasma", "value": 0.667}, {"measurement": "fraction unbound at 30 min, 5 µg/mL", "setting": "in vitro; rat, plasma, Plasma protein binding", "value": 0.408}, {"measurement": "Kp at 30 min", "setting": "[3]", "value": "< 1"}, {"measurement": "Terminal half-life", "setting": "[4]", "value": "approximately 3.3 h"}, {"measurement": "P-gp substrate status", "setting": "P-gp", "value": "substrate of P-gp"}, {"measurement": "AUC(0-inf)", "setting": "[5]; [7]", "value": 4800, "unit": "ng·h/mL"}, {"measurement": "Cmax", "setting": "[5]; [7]", "value": "2960 ± 643", "unit": "ng/mL"}, {"measurement": "CL renal", "setting": "[5]; [7]", "value": "3.52 ± 1.8", "unit": "mL/min/kg"}, {"measurement": "half-life", "setting": "[5]; [7]", "value": "62.1 ± 16.7", "unit": "min"}, {"measurement": "k el", "setting": "[5]; [7]", "value": 0.000197, "unit": "s⁻¹"}, {"measurement": "bioavailability", "setting": "[5]; Sprague-Dawley, rat, plasma, CON rats", "value": 53.7, "unit": "%"}, {"measurement": "AUC(0-inf)", "setting": "[5]; [8]", "value": 7950, "unit": "ng·h/mL"}, {"measurement": "Cmax", "setting": "[5]; [8]", "value": "4750 ± 1180", "unit": "ng/mL"}, {"measurement": "CL renal", "setting": "[5]; [8]", "value": "1.28 ± 0.786", "unit": "mL/min/kg"}, {"measurement": "half-life", "setting": "[5]; [8]", "value": "84.3 ± 21.2", "unit": "min"}, {"measurement": "k el", "setting": "[5]; [8]", "value": 0.000145, "unit": "s⁻¹"}, {"measurement": "bioavailability", "setting": "[5]; Sprague-Dawley, rat, plasma, PHL rats", "value": 51.4, "unit": "%"}, {"measurement": "Tmax", "setting": "[5]; Sprague-Dawley, rat, plasma, oral 20 mg/kg, PHL rats (n = 7)", "value": 30, "unit": "min"}, {"measurement": "AUC0–∞ higher in PHL than in CON rats", "setting": "[5]; oral 20 mg/kg", "value": 65.6, "unit": "%"}, {"measurement": "CLR lower in PHL than in CON rats", "setting": "[5]; oral 20 mg/kg", "value": 63.6, "unit": "%"}, {"measurement": "Cmax higher in PHL than in CON rats", "setting": "[5]; oral 20 mg/kg", "value": 60.5, "unit": "%"}, {"measurement": "Ae0–24 h (drug excreted unchanged in urine for 24 h)", "setting": "[5]; [9]", "value": "4.90 ± 1.95 % of dose"}, {"measurement": "ka (absorption rate constant)", "setting": "[5]; [9]", "value": "0.127 ± 0.0389", "unit": "min⁻¹"}, {"measurement": "Ae0–24 h (drug excreted unchanged in urine for 24 h)", "setting": "[5]; [10]", "value": "3.02 ± 1.87 % of dose"}, {"measurement": "ka (absorption rate constant)", "setting": "[5]; [10]", "value": "0.156 ± 0.0885", "unit": "min⁻¹"}, {"measurement": "Time after dosing at which drug was detected in plasma", "setting": "[5]; oral 20 mg/kg, all CON and PHL rats", "value": 5, "unit": "min"}, {"measurement": "CLint lower in PHL than in CON rats", "setting": "[6]", "value": 36.9, "unit": "%"}, {"measurement": "Km, PHL versus CON rats", "setting": "[6]", "value": "did not differ significantly"}]}
